According to patent US20240317707A1, “COVALENT AND NON-COVALENT INHIBITORS OF CORONAVIRUS PAPAIN-LIKE PROTEASE” (UT-Battelle, LLC, priority 2023, published 2024):

test system: not listed separately; experiment: in vitro; details: African green monkey

**Q.** For `COC(=O)/C=C/C(=O)NNC(=O)C(F)(F)c1ccccc1C(=O)N[C@H](C)c1cccc2ccccc12` [NEU-7792], which CC50 at 48 h is on record?
**A.** > 10000 nM

**Q.** With `COC(=O)/C=C/C(=O)NNC(=O)CCc1ccccc1C(=O)NC1(c2cccc3ccccc23)COC1` [NEU-7769] as the compound, how does the CC50 at 48 h read?
**A.** > 10000 nM

**Q.** For `C[C@@H](NC(=O)c1ccccc1CCC(=O)NNC(=O)/C=C/C(=O)O)c1cccc2ccccc12` [NEU-8114], which CC50 at 48 h is on record?
**A.** > 10000 nM

**Q.** Which CC50 at 48 h does the source give for `COC(=O)/C=C/C(=O)NNC(=O)CCc1ccccc1C(=O)NC1(c2cccc3ccccc23)CC1` [NEU-7768] here?
**A.** > 10000 nM

**Q.** For `COC(=O)/C=C/C(=O)NNC(=O)CCc1ccccc1C(=O)N[C@H](C)c1cccc(-c2cnc(CN3CC[C@H](O)C3)s2)c1` [NEU-7770], which CC50 at 48 h is on record?
**A.** > 10000 nM

**Q.** Which CC50 at 48 h does the source give for `COC(=O)/C=C/C(=O)NNC(=O)CCc1ccccc1C(=O)N[C@@H](c1cccc2ccccc12)C(F)(F)F` [NEU-7772] here?
**A.** > 10000 nM

test system: SARS-CoV-2 isolate USA-WA1/2020; experiment: microbe, parasite or virus in culture; type: cell-based; details: Severe acute respiratory syndrome coronavirus 2, Vero C1008; Vero E6 TMPRSS ACE2 cells, treated 1 hr with compound, MOI=0.1, 48 h; read-out: CPE EC50

**Q.** For `COC(=O)/C=C/C(=O)NNC(=O)C(F)(F)c1ccccc1C(=O)N[C@H](C)c1cccc2ccccc12` [NEU-7792], which EC50 is on record?
**A.** 240 nM

**Q.** Which EC50 does the source give for `COC(=O)/C=C/C(=O)NNC(=O)CCc1ccccc1C(=O)NC1(c2cccc3ccccc23)COC1` [NEU-7769] here?
**A.** 1500 nM

**Q.** With `C[C@@H](NC(=O)c1ccccc1CCC(=O)NNC(=O)/C=C/C(=O)O)c1cccc2ccccc12` [NEU-8114] as the compound, how does the EC50 read?
**A.** 15 nM

**Q.** For `COC(=O)/C=C/C(=O)NNC(=O)CCc1ccccc1C(=O)NC1(c2cccc3ccccc23)CC1` [NEU-7768], which EC50 is on record?
**A.** 22 nM

**Q.** With `COC(=O)/C=C/C(=O)NNC(=O)CCc1ccccc1C(=O)N[C@H](C)c1cccc(-c2cnc(CN3CC[C@H](O)C3)s2)c1` [NEU-7770] as the compound, how does the EC50 read?
**A.** 140 nM

**Q.** With `COC(=O)/C=C/C(=O)NNC(=O)CCc1ccccc1C(=O)N[C@@H](c1cccc2ccccc12)C(F)(F)F` [NEU-7772] as the compound, how does the EC50 read?
**A.** > 10000 nM

same assay, conditions: Severe acute respiratory syndrome coronavirus 2, Vero C1008; Vero E6 TMPRSS ACE2 cells, treated 1 hr with compound, MOI=0.1, 48 h; read-out: CPE EC90

**Q.** With `COC(=O)/C=C/C(=O)NNC(=O)C(F)(F)c1ccccc1C(=O)N[C@H](C)c1cccc2ccccc12` [NEU-7792] as the compound, how does the EC90 read?
**A.** 820 nM

**Q.** For `COC(=O)/C=C/C(=O)NNC(=O)CCc1ccccc1C(=O)NC1(c2cccc3ccccc23)COC1` [NEU-7769], which EC90 is on record?
**A.** 3200 nM

**Q.** With `C[C@@H](NC(=O)c1ccccc1CCC(=O)NNC(=O)/C=C/C(=O)O)c1cccc2ccccc12` [NEU-8114] as the compound, how does the EC90 read?
**A.** 160 nM

**Q.** Which EC90 does the source give for `COC(=O)/C=C/C(=O)NNC(=O)CCc1ccccc1C(=O)NC1(c2cccc3ccccc23)CC1` [NEU-7768] here?
**A.** 250 nM

**Q.** Which EC90 does the source give for `COC(=O)/C=C/C(=O)NNC(=O)CCc1ccccc1C(=O)N[C@H](C)c1cccc(-c2cnc(CN3CC[C@H](O)C3)s2)c1` [NEU-7770] here?
**A.** 880 nM
